Assay results as given in patent publication EP0444898A1, “Cyclic hexapeptide oxytocin antagonists” (MERCK & CO. INC., priority 1990, dated 1991).

Biological target: T1, uterine OT receptors (Rattus norvegicus, UniProt P70536)
T1 construct: a crude membrane preparation of uteri; from tissue; host or cells: uterus of DES-treated rats, crude membranes
T1 sequence (P70536 1-388): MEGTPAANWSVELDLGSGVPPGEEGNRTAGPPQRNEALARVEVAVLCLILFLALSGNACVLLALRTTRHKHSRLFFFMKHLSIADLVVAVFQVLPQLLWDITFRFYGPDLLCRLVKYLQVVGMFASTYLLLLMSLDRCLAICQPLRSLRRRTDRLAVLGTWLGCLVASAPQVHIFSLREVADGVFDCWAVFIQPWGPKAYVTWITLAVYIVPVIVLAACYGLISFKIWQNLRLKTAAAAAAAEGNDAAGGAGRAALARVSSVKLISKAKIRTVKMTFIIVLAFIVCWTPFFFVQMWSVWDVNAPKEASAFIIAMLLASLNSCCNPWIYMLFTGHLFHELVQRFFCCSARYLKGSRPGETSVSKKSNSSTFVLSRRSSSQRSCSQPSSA
Assay: [3H]OT radioligand binding to uterine OT receptors, crude membrane preparation
Design: species or system rats
Conditions: saturation binding assays; uterus

Kd: 0.7 nM
Substance: [tyrosyl, 3,5-^3H]OT [[^3H]OT]
